US20250145641A1, “FUSED BICYCLIC DERIVATIVE, PHARMACEUTICALLY ACCEPTABLE SALT, CRYSTAL FORM THEREOF AND PREPARATION METHOD THEREFOR” (JIANGSU HENGRUI PHARMACEUTICALS CO., LTD., priority 2021, published 2025)
Values belong to the compound of their own block, whether it stands above or below them.

Legend:
Type in all cases: physicochemical
[1] = Stability of crystal form, influencing factor experiment; conditions: for physical and chemical stability (conclusion): illumination, 40° C. and 60° C., humidity 75% and 92.5%
Experimental: The crystal form A of hydrochloride, the crystal form A of methanesulfonate, and the crystal form α of the acetate were placed flat and left open. The stability of the samples was investigated under conditions of illumination (4500 Lux), high temperature (40° C., 60° C.), and high humidity (RH 75%, RH 92.5%), and the sampling investigation period was 30 days.

[2] = Long-term/accelerated stability study; conditions: for physical and chemical stability (conclusion): 25° C./60 RH and 40° C./75 RH, 6 months
Experimental: The crystal form A of hydrochloride, the crystal form A of methanesulfonate, and the crystal form α of acetate were placed at 25° C./60% RH and 40° C./75% RH to investigate the stability, and the results are shown in Tables 10, 11, and 12 below.

[3] = Hygroscopicity study (dynamic vapor sorption); conditions: DVS, 25° C.; for Crystal form after hygroscopicity test: two cycles
Experimental: DVS is dynamic vapor sorption: The detection was carried out using SMS DVS Advantage at 25° C. with a humidity change of 50%-95%-0%-95%-50% in steps of 10% (the last step was 5%) (the specific range of humidity was subject to the corresponding pattern, and most methods were listed here), and the judgment standard was that dm/dt was not greater than 0.002%.
Using Surface Measurement Systems advantage 2, starting at a humidity of 50% at 25° C., the humidity range was 0%-95%, the step was 10%, the judgment standard was that the mass change dM/dT of each gradient was less than 0.002%, the running time TMAX of each humidity gradient was 360 min, with two cycles, and the specific results are shown in Table 8.

- Crystal form ([1]; 40° C., 5 days, open): Untransformed
- Purity % ([1]; 40° C., 5 days, open): 99.3%
- Crystal form ([1]; 40° C., 10 days, open): Untransformed
- Purity % ([1]; 40° C., 10 days, open): 99.3%
- Crystal form ([1]; 40° C., 30 days, open): Untransformed
- Purity % ([1]; 40° C., 30 days, open): 99.3%
- Crystal form ([1]; 60° C., 5 days, open): Untransformed
- Purity % ([1]; 60° C., 5 days, open): 99.3%
- Crystal form ([1]; 60° C., 10 days, open): Untransformed
- Purity % ([1]; 60° C., 10 days, open): 99.3%
- Crystal form ([1]; 60° C., 30 days, open): Untransformed
- Purity % ([1]; 60° C., 30 days, open): 99.2%
- Crystal form ([1]; 75% RH, 5 days, open): Untransformed
- Purity % ([1]; 75% RH, 5 days, open): 99.3%
- Crystal form ([1]; 75% RH, 10 days, open): Untransformed
- Purity % ([1]; 75% RH, 10 days, open): 99.3%
- Crystal form ([1]; 75% RH, 30 days, open): Untransformed
- Purity % ([1]; 75% RH, 30 days, open): 99.4%
- Crystal form ([1]; 92.5% RH, 5 days, open): Untransformed
- Purity % ([1]; 92.5% RH, 5 days, open): 99.3%
- Crystal form ([1]; 92.5% RH, 10 days, open): Untransformed
- Purity % ([1]; 92.5% RH, 10 days, open): 99.3%
- Crystal form ([1]; 92.5% RH, 30 days, open): Untransformed
- Purity % ([1]; 92.5% RH, 30 days, open): 99.3%
- Crystal form ([1]; 4500 Lux, 5 days, open): Untransformed
- Purity % ([1]; 4500 Lux, 5 days, open): 99.3%
- Crystal form ([1]; 4500 Lux, 10 days, open): Untransformed
- Purity % ([1]; 4500 Lux, 10 days, open): 99.3%
- Crystal form ([1]; 4500 Lux, 30 days, open): Untransformed
- Purity % ([1]; 4500 Lux, 30 days, open): 99.3%
- Purity % ([1]; Onset, 0 days): 99.3%
- physical and chemical stability (conclusion) ([1]; 30 days): good physical and chemical stability
- Crystal form ([2]; 25° C./60% RH): Untransformed
- Purity % 1 month ([2]; 25° C./60% RH): 99.3%
- Purity % 2 month ([2]; 25° C./60% RH): 99.3%
- Purity % 3 month ([2]; 25° C./60% RH): 99.2%
- Purity % 6 month ([2]; 25° C./60% RH): 99.3%
- Purity % Onset ([2]; 25° C./60% RH): 99.3%
- physical and chemical stability (conclusion) [2]: good physical and chemical stability
- Crystal form ([2]; 40° C./75% RH): Untransformed
- Purity % 1 month ([2]; 40° C./75% RH): 99.3%
- Purity % 2 month ([2]; 40° C./75% RH): 99.3%
- Purity % 3 month ([2]; 40° C./75% RH): 99.2%
- Purity % 6 month ([2]; 40° C./75% RH): 99.3%
- Purity % Onset ([2]; 40° C./75% RH): 99.3%
- mass change 0% RH-80.0% RH [3]: 0.60%
- mass change 0.0% RH-95.0% RH [3]: 0.79%
- Crystal form after hygroscopicity test [3]: Untransformed
SMILES: CC(C)NCC(C(=O)N1C2CCC1CN(c1ncnc3c1C(C)(C)C(=O)N3)C2)c1ccc(Cl)cc1.Cl (stereo not drawn) [Crystal form A of hydrochloride]

- Crystal form ([1]; 40° C., 5 days, open): Untransformed
- Purity % ([1]; 40° C., 5 days, open): 99.6%
- Crystal form ([1]; 40° C., 10 days, open): Untransformed
- Purity % ([1]; 40° C., 10 days, open): 99.6%
- Crystal form ([1]; 40° C., 30 days, open): Untransformed
- Purity % ([1]; 40° C., 30 days, open): 99.0%
- Crystal form ([1]; 60° C., 5 days, open): Untransformed
- Purity % ([1]; 60° C., 5 days, open): 99.6%
- Crystal form ([1]; 60° C., 10 days, open): Untransformed
- Purity % ([1]; 60° C., 10 days, open): 99.5%
- Crystal form ([1]; 60° C., 30 days, open): Untransformed
- Purity % ([1]; 60° C., 30 days, open): 98.8%
- Crystal form ([1]; 75% RH, 5 days, open): Untransformed
- Purity % ([1]; 75% RH, 5 days, open): 99.7%
- Crystal form ([1]; 75% RH, 10 days, open): Untransformed
- Purity % ([1]; 75% RH, 10 days, open): 99.7%
- Crystal form ([1]; 75% RH, 30 days, open): Untransformed
- Purity % ([1]; 75% RH, 30 days, open): 99.7%
- Crystal form ([1]; 92.5% RH, 5 days, open): Untransformed
- Purity % ([1]; 92.5% RH, 5 days, open): 99.7%
- Crystal form ([1]; 92.5% RH, 10 days, open): Untransformed
- Purity % ([1]; 92.5% RH, 10 days, open): 99.7%
- Crystal form ([1]; 92.5% RH, 30 days, open): Untransformed
- Purity % ([1]; 92.5% RH, 30 days, open): 99.7%
- Crystal form ([1]; 4500 Lux, 5 days, open): Untransformed
- Purity % ([1]; 4500 Lux, 5 days, open): 99.7%
- Crystal form ([1]; 4500 Lux, 10 days, open): Untransformed
- Purity % ([1]; 4500 Lux, 10 days, open): 99.7%
- Crystal form ([1]; 4500 Lux, 30 days, open): Untransformed
- Purity % ([1]; 4500 Lux, 30 days, open): 99.6%
- Purity % ([1]; Onset, 0 days): 99.7%
- Crystal form ([2]; 25° C./60% RH): Untransformed
- Purity % 1 month ([2]; 25° C./60% RH): 99.7%
- Purity % 2 month ([2]; 25° C./60% RH): 99.7%
- Purity % 3 month ([2]; 25° C./60% RH): 99.7%
- Purity % 6 month ([2]; 25° C./60% RH): 99.7%
- Purity % Onset ([2]; 25° C./60% RH): 99.7%
- physical and chemical stability (conclusion) [2]: good physical and chemical stability
- Crystal form ([2]; 40° C./75% RH): Untransformed
- Purity % 1 month ([2]; 40° C./75% RH): 99.7%
- Purity % 2 month ([2]; 40° C./75% RH): 99.6%
- Purity % 3 month ([2]; 40° C./75% RH): 99.6%
- Purity % 6 month ([2]; 40° C./75% RH): 99.5%
- Purity % Onset ([2]; 40° C./75% RH): 99.7%
- mass change 0% RH-80.0% RH [3]: 0.50%
- mass change 0.0% RH-95.0% RH [3]: 0.66%
- Crystal form after hygroscopicity test [3]: Untransformed
SMILES: CC(=O)O.CC(C)NCC(C(=O)N1C2CCC1CN(c1ncnc3c1C(C)(C)C(=O)N3)C2)c1ccc(Cl)cc1 (stereo not drawn) [Crystal form α of acetate]
- physical and chemical stability (conclusion) ([1]; 30 days): good physical stability and good chemical stability under high humidity and illumination conditions

- Crystal form ([1]; 40° C., 5 days, open): Untransformed
- Purity % ([1]; 40° C., 5 days, open): 99.9%
- Crystal form ([1]; 40° C., 10 days, open): Untransformed
- Purity % ([1]; 40° C., 10 days, open): 99.9%
- Crystal form ([1]; 40° C., 30 days, open): Untransformed
- Purity % ([1]; 40° C., 30 days, open): 99.9%
- Crystal form ([1]; 60° C., 5 days, open): Untransformed
- Purity % ([1]; 60° C., 5 days, open): 99.9%
- Crystal form ([1]; 60° C., 10 days, open): Untransformed
- Purity % ([1]; 60° C., 10 days, open): 99.9%
- Crystal form ([1]; 60° C., 30 days, open): Untransformed
- Purity % ([1]; 60° C., 30 days, open): 99.9%
- Crystal form ([1]; 75% RH, 5 days, open): Untransformed
- Purity % ([1]; 75% RH, 5 days, open): 99.9%
- Crystal form ([1]; 75% RH, 10 days, open): Untransformed
- Purity % ([1]; 75% RH, 10 days, open): 99.9%
- Crystal form ([1]; 75% RH, 30 days, open): Untransformed
- Purity % ([1]; 75% RH, 30 days, open): 99.9%
- Crystal form ([1]; 92.5% RH, 5 days, open): Untransformed
- Purity % ([1]; 92.5% RH, 5 days, open): 99.9%
- Crystal form ([1]; 92.5% RH, 10 days, open): Untransformed
- Purity % ([1]; 92.5% RH, 10 days, open): 99.9%
- Crystal form ([1]; 92.5% RH, 30 days, open): Untransformed
- Purity % ([1]; 92.5% RH, 30 days, open): 99.9%
- Crystal form ([1]; 4500 Lux, 5 days, open): Untransformed
- Purity % ([1]; 4500 Lux, 5 days, open): 99.9%
- Crystal form ([1]; 4500 Lux, 10 days, open): Untransformed
- Purity % ([1]; 4500 Lux, 10 days, open): 99.9%
- Crystal form ([1]; 4500 Lux, 30 days, open): Untransformed
- Purity % ([1]; 4500 Lux, 30 days, open): 99.9%
- Purity % ([1]; Onset, 0 days): 99.9%
- physical and chemical stability (conclusion) ([1]; 30 days): good physical and chemical stability
- Crystal form ([2]; 25° C./60% RH): Untransformed
- Purity % 1 month ([2]; 25° C./60% RH): 99.9%
- Purity % 2 month ([2]; 25° C./60% RH): 99.8%
- Purity % 3 month ([2]; 25° C./60% RH): 99.8%
- Purity % 6 month ([2]; 25° C./60% RH): 99.9%
- Purity % Onset ([2]; 25° C./60% RH): 99.9%
- physical and chemical stability (conclusion) [2]: good physical and chemical stability
- Crystal form ([2]; 40° C./75% RH): Untransformed
- Purity % 1 month ([2]; 40° C./75% RH): 99.9%
- Purity % 2 month ([2]; 40° C./75% RH): 99.8%
- Purity % 3 month ([2]; 40° C./75% RH): 99.8%
- Purity % 6 month ([2]; 40° C./75% RH): 99.8%
- Purity % Onset ([2]; 40° C./75% RH): 99.9%
- mass change 0% RH-80.0% RH [3]: 0.31%
- mass change 0.0% RH-95.0% RH [3]: 0.43%
- Crystal form after hygroscopicity test [3]: Untransformed
SMILES: CC(C)NCC(C(=O)N1C2CCC1CN(c1ncnc3c1C(C)(C)C(=O)N3)C2)c1ccc(Cl)cc1.CS(=O)(=O)O (stereo not drawn) [Crystal form A of methanesulfonate]
